Test results published in ChEMBL document CHEMBL1201862, “PubChem BioAssay data set” (2004).
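Growth conditions: 96-well plates. Treatment: test compound, 48 hours, 5 concentrations. Analysis: linear interpolation between bracketing concentrations; unreached endpoints set to highest concentration. GI50: concentration for 50% inhibition of growth.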 The source made the active and inactive calls. Cut-off read from the data, not from the text of the source: active = GI50 up to about 1.1 µM and inactive = higher.

How the values were obtained:
Test in all cases: inhibition of tumour cell growth, NCI panel, 48 h
[1] = tested on: MDA-MB-435
[2] = tested on: A498
[3] = tested on: PC-3
[4] = tested on: MCF7
[5] = tested on: M14
[6] = tested on: HCC 2998
[7] = tested on: SN12C
[8] = tested on: NCI-H226
[9] = tested on: HOP-62
[10] = tested on: ACHN
[11] = tested on: U-251
[12] = tested on: SNB-19
[13] = tested on: T47D
[14] = tested on: LOX IMVI
[15] = tested on: SW-620
[16] = tested on: IGROV-1
[17] = tested on: SK-MEL-28
[18] = tested on: Malme-3M
[19] = tested on: NCI-H460
[20] = tested on: MDA-N

Measured: GI50

Oc1c2cccc1Cc1cccc3c1OCCOCCOCCOCCOc1c(cccc1Cc1cccc(c1O)C3)C2
inactive: [1] > 100 µM | [2] > 100 µM | [3] 17.1 µM | [4] > 100 µM | [5] > 100 µM | [6] > 100 µM | [7] > 100 µM | [8] 22.5 µM | [9] > 100 µM | [10] > 100 µM | [11] > 100 µM | [12] > 100 µM | [13] > 100 µM | [14] > 100 µM | [15] > 100 µM | [16] > 100 µM | [17] > 100 µM

O=C(/C=C1\Nc2ccccc2N\C1=C\C(=O)c1ccc(Cl)cc1)c1ccccc1
inactive: [1] > 100 µM | [2] 73.6 µM | [3] > 100 µM | [4] 38.7 µM | [5] 18.3 µM | [18] > 100 µM | [6] 74.8 µM | [7] 47.2 µM | [8] > 100 µM | [9] 26.1 µM | [10] 31.6 µM | [11] 23.4 µM | [12] 94.4 µM | [13] 16 µM | [14] 33.3 µM | [15] > 100 µM | [16] > 100 µM | [17] 42.4 µM | [19] 19.7 µM

CSC1=N/C(=C\c2ccc(C)cc2)C(=O)N1
inactive: [1] > 100 µM | [3] 94.6 µM | [4] 50.8 µM | [5] > 100 µM | [18] > 100 µM | [6] 66.2 µM | [7] > 100 µM | [8] > 100 µM | [9] 39.5 µM | [10] > 100 µM | [11] 65.3 µM | [12] 58.7 µM | [13] 25.2 µM | [14] 57.3 µM | [15] > 100 µM | [16] > 100 µM | [17] > 100 µM | [20] > 100 µM

O=C(c1ccc(Cl)cc1)c1ccc(OCC(=O)N2CCN(c3ccccc3)CC2)cc1
inactive: [2] 32.1 µM | [5] > 100 µM | [18] > 100 µM | [6] > 100 µM | [7] > 100 µM | [8] > 100 µM | [9] > 100 µM | [10] > 100 µM | [11] > 100 µM | [12] > 100 µM | [14] > 100 µM | [15] > 100 µM | [16] > 100 µM | [17] > 100 µM | [19] > 100 µM

NS(=O)(=O)c1cc2c(cc1Cl)NC(C(=O)c1cc(=O)c3ccc(O)cc3o1)=NS2(=O)=O
inactive: [2] > 100 µM | [5] > 100 µM | [18] > 100 µM | [6] > 100 µM | [7] > 100 µM | [8] > 100 µM | [9] > 100 µM | [10] > 100 µM | [11] > 100 µM | [12] > 100 µM | [14] > 100 µM | [15] > 100 µM | [16] > 100 µM | [17] > 100 µM | [19] > 100 µM

OC(c1ccccn1)C1CNc2ccccc21 (stereo not drawn)
inactive: [2] > 100 µM | [5] > 100 µM | [18] > 100 µM | [6] > 100 µM | [7] > 100 µM | [8] > 100 µM | [9] > 100 µM | [10] > 100 µM | [11] > 100 µM | [12] > 100 µM | [14] > 100 µM | [15] > 100 µM | [16] > 100 µM | [17] > 100 µM | [19] > 100 µM

CC(Oc1cc2oc(=O)cc(-c3ccccc3)c2cc1Cl)C(=O)O (stereo not drawn)
inactive: [2] > 100 µM | [5] > 100 µM | [18] > 100 µM | [6] > 100 µM | [7] > 100 µM | [8] > 100 µM | [9] > 100 µM | [10] > 100 µM | [11] > 100 µM | [12] > 100 µM | [14] > 100 µM | [15] > 100 µM | [16] > 100 µM | [17] > 100 µM | [19] > 100 µM

CN(C)c1ccc(/C=C2\C[N+](C)(C)C/C(=C\c3ccc(N(C)C)cc3)C2=O)cc1
inactive: [1] 12.1 µM | [2] > 100 µM | [4] 5.4 µM | [5] 20.3 µM | [18] 22.1 µM | [6] 8.18 µM | [7] 20.5 µM | [8] 30.5 µM | [9] 42.8 µM | [10] 70.5 µM | [11] 6.27 µM | [12] 17.5 µM | [13] 16.5 µM | [14] 14.9 µM | [15] 15.3 µM | [16] 8.57 µM | [17] 15.3 µM | [19] 13.6 µM

COc1ccc(C(=O)/C=C/c2ccc(OCCCCCCCCCCOc3ccc(/C=C/C(=O)c4ccc(OC)c(OC)c4)cc3)cc2)c(OC)c1
inactive: [1] > 100 µM | [3] > 100 µM | [4] > 100 µM | [5] > 100 µM | [6] > 100 µM | [7] > 100 µM | [8] > 100 µM | [9] > 100 µM | [10] > 100 µM | [11] > 100 µM | [12] > 100 µM | [13] > 100 µM | [15] > 100 µM | [16] > 100 µM | [17] > 100 µM | [19] > 100 µM | [20] > 100 µM

N#Cc1c(-c2cccc(Br)c2)cc(-c2ccc(Cl)cc2)nc1N
inactive: [1] 18.2 µM | [3] 22.2 µM | [4] 26.2 µM | [5] 20.7 µM | [18] 23.7 µM | [6] 17.3 µM | [7] 19.1 µM | [8] 17.5 µM | [9] 23.5 µM | [10] 21.8 µM | [11] 16.4 µM | [12] 18.7 µM | [13] 29 µM | [14] 15.8 µM | [15] 18.2 µM | [16] 14 µM | [19] 21.2 µM | [20] 20.5 µM

Fc1ccc(Oc2nc3ccc(C(F)(F)F)cc3nc2-c2ccccc2)cc1
inactive: [1] 76.2 µM | [3] > 100 µM | [4] 28.8 µM | [5] 50.4 µM | [18] 38 µM | [6] 14.5 µM | [7] > 100 µM | [9] 24.4 µM | [10] 44.8 µM | [12] 87.9 µM | [13] 99.3 µM | [14] > 100 µM | [15] > 10 µM | [16] > 100 µM | [19] 66.2 µM | [20] 99.5 µM

O=[N+]([O-])c1ccc(/C=C(/c2ccc([N+](=O)[O-])o2)S(=O)(=O)c2ccccc2)cc1
inactive: [1] 60.8 µM | [3] > 100 µM | [4] 40.8 µM | [5] 56.2 µM | [18] 25.2 µM | [8] 13.4 µM | [9] 50.6 µM | [10] > 100 µM | [11] 73.5 µM | [12] 73.5 µM | [13] > 100 µM | [15] 52 µM | [16] 75.5 µM | [17] > 100 µM | [19] > 100 µM

COC(=O)C(CC(C)=O)CS(=O)(=O)CC(=O)C(=O)Nc1cccc([N+](=O)[O-])c1 (stereo not drawn)
inactive: [2] > 100 µM | [5] > 100 µM | [18] > 100 µM | [6] > 100 µM | [7] > 100 µM | [8] > 100 µM | [9] > 100 µM | [10] > 100 µM | [11] > 100 µM | [12] > 100 µM | [14] > 100 µM | [15] > 100 µM | [16] > 100 µM | [17] > 100 µM | [19] > 100 µM

Nc1ccc(-c2nc3ccc(F)cc3s2)cc1Cl
active: [2] 0.402 µM | [4] < 0.01 µM | [6] 0.0869 µM | [16] < 0.01 µM
inactive: [1] > 100 µM | [3] > 100 µM | [5] > 100 µM | [18] > 100 µM | [7] > 100 µM | [8] 14.1 µM | [9] 26.9 µM | [10] > 100 µM | [11] > 65.5 µM | [12] > 62.2 µM | [14] > 73.1 µM | [15] > 100 µM | [17] > 100 µM | [20] > 100 µM

COC(=O)CSc1cc(Cl)c(C)cc1S(=O)(=O)Nc1n[nH]c(N)n1
inactive: [2] > 10 µM | [3] > 10 µM | [4] > 10 µM | [5] > 10 µM | [18] > 10 µM | [6] > 10 µM | [7] > 10 µM | [8] > 10 µM | [9] > 10 µM | [10] > 10 µM | [11] > 10 µM | [12] > 10 µM | [13] > 10 µM | [14] > 10 µM | [15] > 10 µM | [16] > 10 µM | [17] > 10 µM | [19] > 10 µM | [20] > 10 µM

CC(C)(C)c1ccc(OC(=O)Nc2ccc(O)c(C(=O)O)c2)cc1
inactive: [1] > 100 µM | [2] > 100 µM | [3] > 100 µM | [4] > 100 µM | [5] > 100 µM | [18] > 100 µM | [7] > 100 µM | [8] > 100 µM | [9] > 100 µM | [10] > 100 µM | [11] > 100 µM | [12] > 100 µM | [13] > 100 µM | [14] > 100 µM | [15] > 100 µM | [16] > 100 µM | [17] > 100 µM | [19] > 100 µM
